According to patent publication US10568950B1, “Peptides, combination of peptides and scaffolds for use in immunotherapeutic treatment of various cancers” (Immatics Biotechnologies GmbH, priority 2015, dated 2020):

Legend:
[1] = tested on: CD8+ T cells of healthy HLA-A*24+ donors; assay: In vitro immunogenicity: priming of CD8+ T cells with aAPCs loaded with HLA-A*24/peptide complexes and anti-CD28, multimer staining; assay type: cell-based, human; conditions: in vitro immunogenicity, HLA-A*24 peptides of Table 12B
Procedure: CD8+ T cells were primed using artificial APCs coated with anti-CD28 mAb and HLA-A*24 in complex with SEQ ID NO: 99 peptide (FIG. 5A, left panel), SEQ ID NO: 119 peptide (FIG. 5B, left panel), SEQ ID NO: 142 peptide (FIG. 5C, left panel) and SEQ ID NO: 174 peptide (FIG. 5D, left panel), respectively. After three cycles of stimulation, the detection of peptide-reactive cells was performed by 2D multimer staining with A*24/SEQ ID NO: 99 (A), A*24/SEQ ID NO: 119 (B), A*24/SEQ ID NO: 142 (C) or A*24/SEQ ID NO: 174 (D). Right panels (FIGS. 5A, 5B, 5C and 5D) show control staining of cells stimulated with irrelevant A*24/peptide complexes. Viable singlet cells were gated for CD8+ lymphocytes. Boolean gates helped excluding false-positive events detected with multimers specific for different peptides. Frequencies of specific multimer+ cells among CD8+ lymphocytes are indicated.
In order to obtain information regarding the immunogenicity of the TUMAPs of the present invention, the inventors performed investigations using an in vitro T-cell priming assay based on repeated stimulations of CD8+ T cells with artificial antigen presenting cells (aAPCs) loaded with peptide/MHC complexes and anti-CD28 antibody.
PBMCs and isolated CD8+ lymphocytes were incubated in T-cell medium (TCM) until use consisting of RPMI-Glutamax (Invitrogen, Karlsruhe, Germany) supplemented with 10% heat inactivated human AB serum (PAN-Biotech, Aidenbach, Germany), 100 U/ml Penicillin/100 μg/ml Streptomycin (Cambrex, Cologne, Germany), 1 mM sodium pyruvate (CC Pro, Oberdorla, Germany), 20 μg/ml Gentamycin (Cambrex). 2.5 ng/ml IL-7 (PromoCell, Heidelberg, Germany) and 10 U/ml IL-2 (Novartis Pharma, Nurnberg, Germany) were also added to the TCM at this step.
Generation of pMHC/anti-CD28 coated beads, T-cell stimulations and readout was performed in a highly defined in vitro system using four different pMHC molecules per stimulation condition and 8 different pMHC molecules per readout condition.
The purified co-stimulatory mouse IgG2a anti human CD28 Ab 9.3 (Jung et al., 1987) was chemically biotinylated using Sulfo-N-hydroxysuccinimidobiotin as recommended by the manufacturer (Perbio, Bonn, Germany). Beads used were 5.6 μm diameter streptavidin coated polystyrene particles (Bangs Laboratories, Illinois, USA).
800.000 beads/200 μl were coated in 96-well plates in the presence of 4×12.5 ng different biotin-pMHC, washed and 600 ng biotin anti-CD28 were added subsequently in a volume of 200 μl. Stimulations were initiated in 96-well plates by co-incubating […] CD8+ T cells with 2×10^5 washed coated beads in 200 μl TCM supplemented with 5 ng/ml IL-12 (PromoCell) for 3 days at 37° C. Half of the medium was then exchanged by fresh TCM supplemented with 80 U/ml IL-2 and incubating was continued for 4 days at 37° C. This stimulation cycle was performed for a total of three times. For the pMHC multimer readout using 8 different pMHC molecules per condition, a two-dimensional combinatorial coding approach was used as previously described (Andersen et al., 2012) with minor modifications encompassing coupling to 5 different fluorochromes. Finally, multimeric analyses were performed by staining the cells with Live/dead near IR dye (Invitrogen, Karlsruhe, Germany), CD8-FITC antibody clone SKI (BD, Heidelberg, Germany) and fluorescent pMHC multimers. For analysis, a BD LSRII SORP cytometer equipped with appropriate lasers and filters was used. Peptide specific cells were calculated as percentage of total CD8+ cells. Evaluation of multimeric analysis was done using the FlowJo software (Tree Star, Oreg., USA). In vitro priming of specific multimer+ CD8+ lymphocytes was detected by comparing to negative control stimulations.

HLA-A*24 = assay: MHC binding assay: UV-ligand exchange, beta2m ELISA (peptide exchange yield); design: species or system human; conditions: binding to HLA-A*24, β2m ELISA
From the text: Candidate peptides for T cell based therapies according to the present invention were further tested for their MHC binding capacity (affinity). The individual peptide-MHC complexes were produced by UV-ligand exchange, where a UV-sensitive peptide is cleaved upon UV-irradiation, and exchanged with the peptide of interest as analyzed. Only peptide candidates that can effectively bind and stabilize the peptide-receptive MHC molecules prevent dissociation of the MHC complexes. To determine the yield of the exchange reaction, an ELISA was performed based on the detection of the light chain (β2m) of stabilized MHC complexes. The assay was performed as generally described in Rodenko et al. (Rodenko et al., 2006).
96 well MAXISorp plates (NUNC) were coated over night with 2 ug/ml streptavidin in PBS at room temperature, washed 4× and blocked for 1 h at 37° C. in 2% BSA containing blocking buffer. […] Peptide-MHC monomers of the UV-exchange reaction were diluted 100 fold in blocking buffer. Samples were incubated for 1 h at 37° C., washed four times, incubated with 2 ug/ml HRP conjugated anti-βm for 1 h at 37° C., washed again and detected with TMB solution that is stopped with […]. Absorption was measured at 450 nm. Candidate peptides that show a high exchange yield (preferably higher than 50%, most preferred higher than 75%) are generally preferred for a generation and production of antibodies or fragments thereof, and/or T cell receptors or fragments thereof, as they show sufficient avidity to the MHC molecules and prevent dissociation of the MHC complexes.

98 (VFPRLHNVLF; listed as Homo sapiens) [compound 98]
Wells positive [%] [1]: + (<20% = +)

102 (VYPFENFEF; listed as Homo sapiens) [compound 102]
Wells positive [%] [1]: +++ (50%-69% = +++)

103 (NYIPVKNGKQF; listed as Homo sapiens) [compound 103]
Wells positive [%] [1]: + (<20% = +)

105 (IYNETITDLL; listed as Homo sapiens) [compound 105]
Wells positive [%] [1]: + (<20% = +)

106 (IYNETVRDLL; listed as Homo sapiens) [compound 106]
Wells positive [%] [1]: + (<20% = +)

107 (KYFPYLVVI; listed as Homo sapiens) [compound 107]
Wells positive [%] [1]: ++ (20%-49% = ++)

110 (SYPKIIEEF; listed as Homo sapiens) [compound 110]
Wells positive [%] [1]: ++ (20%-49% = ++)

111 (VYVQILQKL; listed as Homo sapiens) [compound 111]
Wells positive [%] [1]: + (<20% = +)

112 (IYNFVESKL; listed as Homo sapiens) [compound 112]
Wells positive [%] [1]: +++ (50%-69% = +++)

115 (RYLNKSFVL; listed as Homo sapiens) [compound 115]
Wells positive [%] [1]: + (<20% = +)

119 (VYRVYVTTF; listed as Homo sapiens) [compound 119]
Wells positive [%] [1]: +++ (50%-69% = +++)

122 (EYQARIPEF; listed as Homo sapiens) [compound 122]
Wells positive [%] [1]: ++ (20%-49% = ++)

139 (IFGIFPNQF; listed as Homo sapiens) [compound 139]
Wells positive [%] [1]: ++ (20%-49% = ++)

142 (VYVDDIYVI; listed as Homo sapiens) [compound 142]
Wells positive [%] [1]: ++++ (>= 70 % = ++++)

157 (DYIPASGFALF; listed as Homo sapiens) [compound 157]
Wells positive [%] [1]: + (<20% = +)

158 (IYEETRGVLKVF; listed as Homo sapiens) [compound 158]
Wells positive [%] [1]: + (<20% = +)

160 (RYGDGGSSF; listed as Homo sapiens) [compound 160]
Wells positive [%] [1]: + (<20% = +)

161 (KYPDIVQQF; listed as Homo sapiens) [compound 161]
Wells positive [%] [1]: + (<20% = +)

162 (KYTSYILAF; listed as Homo sapiens) [compound 162]
Wells positive [%] [1]: + (<20% = +)

249 (RYHPTTCTI; listed as Homo sapiens) [compound 249]
Peptide exchange (MHC class I binding score, peptide exchange yield) (HLA-A*24): ++++ (>= 75% = ++++)

252 (AFGQETNVPLNNF; listed as Homo sapiens) [compound 252]
Peptide exchange (MHC class I binding score, peptide exchange yield) (HLA-A*24): ++++ (>= 75% = ++++)

260 (VYMNVMTRL; listed as Homo sapiens) [compound 260]
Peptide exchange (MHC class I binding score, peptide exchange yield) (HLA-A*24): ++++ (>= 75% = ++++)

261 (GYIKLINFI; listed as Homo sapiens) [compound 261]
Peptide exchange (MHC class I binding score, peptide exchange yield) (HLA-A*24): ++++ (>= 75% = ++++)

262 (VYSSQFETI; listed as Homo sapiens) [compound 262]
Peptide exchange (MHC class I binding score, peptide exchange yield) (HLA-A*24): ++++ (>= 75% = ++++)

264 (LYTETRLQF; listed as Homo sapiens) [compound 264]
Peptide exchange (MHC class I binding score, peptide exchange yield) (HLA-A*24): ++++ (>= 75% = ++++)

265 (SYLNEAFSF; listed as Homo sapiens) [compound 265]
Peptide exchange (MHC class I binding score, peptide exchange yield) (HLA-A*24): ++++ (>= 75% = ++++)

271 (RFLMKSYSF; listed as Homo sapiens) [compound 271]
Peptide exchange (MHC class I binding score, peptide exchange yield) (HLA-A*24): ++++ (>= 75% = ++++)

272 (RYVFPLPYL; listed as Homo sapiens) [compound 272]
Peptide exchange (MHC class I binding score, peptide exchange yield) (HLA-A*24): ++++ (>= 75% = ++++)

274 (KQLDIANYELF; listed as Homo sapiens) [compound 274]
Peptide exchange (MHC class I binding score, peptide exchange yield) (HLA-A*24): ++++ (>= 75% = ++++)

275 (KYGTLDVTF; listed as Homo sapiens) [compound 275]
Peptide exchange (MHC class I binding score, peptide exchange yield) (HLA-A*24): ++++ (>= 75% = ++++)

276 (QYLDVLHAL; listed as Homo sapiens) [compound 276]
Peptide exchange (MHC class I binding score, peptide exchange yield) (HLA-A*24): ++++ (>= 75% = ++++)

280 (TYNPNLQDKL; listed as Homo sapiens) [compound 280]
Peptide exchange (MHC class I binding score, peptide exchange yield) (HLA-A*24): ++++ (>= 75% = ++++)

286 (SYGTILSHI; listed as Homo sapiens) [compound 286]
Peptide exchange (MHC class I binding score, peptide exchange yield) (HLA-A*24): ++++ (>= 75% = ++++)

289 (FFHEGQYVF; listed as Homo sapiens) [compound 289]
Peptide exchange (MHC class I binding score, peptide exchange yield) (HLA-A*24): ++++ (>= 75% = ++++)

290 (KYGDFKLLEF; listed as Homo sapiens) [compound 290]
Peptide exchange (MHC class I binding score, peptide exchange yield) (HLA-A*24): ++++ (>= 75% = ++++)

292 (FYPQIINTF; listed as Homo sapiens) [compound 292]
Peptide exchange (MHC class I binding score, peptide exchange yield) (HLA-A*24): ++++ (>= 75% = ++++)

293 (VYPHFSTTNLI; listed as Homo sapiens) [compound 293]
Peptide exchange (MHC class I binding score, peptide exchange yield) (HLA-A*24): ++++ (>= 75% = ++++)

296 (SYQVIFQHF; listed as Homo sapiens) [compound 296]
Peptide exchange (MHC class I binding score, peptide exchange yield) (HLA-A*24): ++++ (>= 75% = ++++)

297 (TYIDTRTVF; listed as Homo sapiens) [compound 297]
Peptide exchange (MHC class I binding score, peptide exchange yield) (HLA-A*24): ++++ (>= 75% = ++++)

298 (AYKSEVVYF; listed as Homo sapiens) [compound 298]
Peptide exchange (MHC class I binding score, peptide exchange yield) (HLA-A*24): ++++ (>= 75% = ++++)

301 (KFDDVTMLF; listed as Homo sapiens) [compound 301]
Peptide exchange (MHC class I binding score, peptide exchange yield) (HLA-A*24): ++++ (>= 75% = ++++)

305 (NYENKQYLF; listed as Homo sapiens) [compound 305]
Peptide exchange (MHC class I binding score, peptide exchange yield) (HLA-A*24): ++++ (>= 75% = ++++)

311 (EYLQNLNHI; listed as Homo sapiens) [compound 311]
Peptide exchange (MHC class I binding score, peptide exchange yield) (HLA-A*24): ++++ (>= 75% = ++++)

313 (KYTHFIQSF; listed as Homo sapiens) [compound 313]
Peptide exchange (MHC class I binding score, peptide exchange yield) (HLA-A*24): ++++ (>= 75% = ++++)

319 (KYSDVKNLI; listed as Homo sapiens) [compound 319]
Peptide exchange (MHC class I binding score, peptide exchange yield) (HLA-A*24): ++++ (>= 75% = ++++)

357 (QFITSTNTF; listed as Homo sapiens) [compound 357]
Peptide exchange (MHC class I binding score, peptide exchange yield) (HLA-A*24): ++++ (>= 75% = ++++)

379 (VFIAQGYTL; listed as Homo sapiens) [compound 379]
Peptide exchange (MHC class I binding score, peptide exchange yield) (HLA-A*24): ++++ (>= 75% = ++++)
